Test results published in patent publication US20230121771A1, “A PHARMACEUTICAL COMBINATION OF AN ARTEMISININ COMPOUND, 5-AMINOLEVULINIC ACID OR METHYL-5-AMINOLEVULINIC ACID AND A CHEMOTHERAPEUTIC AGENT” (JLP Health GmbH, priority 2020, published 2023).

Assays:
[1] = system: Myc overexpressing tumor organoids; assay: ROS/DHE staining of dissociated CNS-PNET tumor organoids; assay type: cell-based, human; conditions: especially in GFP-positive cancer cells
Experimental: (§1) Treated cells were collected, washed with 1x HBSS (without Ca2+ and Mg2+), incubated with 1mM DHE (Dihydroethidium (Hydroethidine), Invitrogen, D11347) in 1x HBSS for 45 min at 37° C., washed twice and counterstained with DAPI or a viability dye (eBioscience™ Fixable Viability Dye eFluor™ 780, 65-0865-18) for 10 min on ice. Cells were then collected, strained and analysed using flow cytometry for DHE in the red fluorescent spectrum (PE channel).
Cerebral (tumor) organoids were enzymatically and mechanically dissociated using 1x trypsin, 35-45 min incubation at 37° C., and gentle shaking. Organoids were singularised by careful resuspension, addition of differentiation medium and straining (Falcon Round-Bottom Tubes with Cell Strainer Cap, 5 mL, 35 µm nylon mesh cell strainer snap cap). Single cells in suspension were counterstained with DAPI or a viability dye (eBioscience™ Fixable Viability Dye eFluor™ 780, 65-0865-18), and analysed using flow cytometry (BD LSRFortessa HTS Cell Analyzer). The amounts of GFP-positive cells were analyzed.

[2] = system: human cerebral tumor organoids (CNS-PNET); assay: Compound profiling in CNS-PNET cerebral tumor organoids (GFP-positive tumor cells); assay type: cell-based
Experimental: Tumor initiation was induced by either oncogene amplification, using a Sleeping Beauty (SB) transposase, or mutation of tumor suppressor genes, using the CRISPR-Cas9 system in day 10 old embryoid bodies (EBs). Plasmids carrying the transposase as well as GFP and the desired oncogenes or expressing Cas9 nuclease were introduced by electroporation. In brief, a mixture of 1 μg DNA and 100 μl nucleofector solution was added to 10 EBs and transferred to a nucleofection cuvette. The Lonza Nucleofector 2b and the A-023 program were used for electroporation/ nucleofection. Thereafter, EBs were transferred into 10 cm dishes containing differentiation media containing vitamin A and embedded into Matrigel 24 hours later. Two different types of tumors were initiated {Bian:2018gs}: Central nervous system primitive neuroectodermal tumors (CNS-PNET) were induced by the overexpression of Myc. Glioblastoma-like tumor group 2 (GBM-2) was caused by mutagenesis of the tumor suppressor genes p53, NF1 and PTEN. All plasmids were designed by Shan Bian {Bian, S. et al. Genetically engineered cerebral organoids model brain tumor formation. Nat. Methods 15, 631-639 (2018)}. Cerebral tumor organoids were treated with different compounds and the survival and growth of transformed as well as untransformed neurons was monitored. Fluorescence labeling of tumor cells allowed clear distinguishability of transformed cells as compared to non-labeled throughout the experiment using brightfield microscopy, as well as fluorescence imaging. The transformed tumor tissue and untransformed neurons within the same organoid was monitored using fluorescence imaging, as well as brightfield microscopy throughout the experiment. At the endpoint of the treatment (d5 or d7 respectively), the number of GFP-positive cells was assessed by flow cytometry. Cerebral (tumor) organoids were enzymatically and mechanically dissociated using 1x trypsin, 35-45 min incubation at 37° C., and gentle shaking. […] Single cells in suspension were counterstained with DAPI or a viability dye (eBioscienceTM Fixable Viability Dye eFluorTM 780, 65-0865-18), and analysed using flow cytometry (BD LSRFortessa HTS Cell Analyzer). The amounts of GFP-positive cells were analyzed. […] Brightfield and green fluorescence images were taken from the same area. Additionally, for image analyses, the Celldiscoverer 7 (Zeiss), a fully integrated high-end automated live cell imaging system, was used. Cerebral organoids were fixed in 4% PFA (room temperature, 1 h), incubated with 30% sucrose (4° C., o/n), OCT (Tissue-tek OCT Compound, […], 4583) embedded and 20 μm sections were cryostat cut (-12/-14° C.). […] Fluorescence Mounting Medium (Dako, S302380) was used for mounting the sample slides. […]

mouse ESCs = assay: Cell survival of artemisinin treated mouse embryonic stem cells (Alamar Blue, 48 h); assay type: cell-based; conditions: artemisinin combined with acifluorfen or 5-ALA (0.5 mM)
Experimental: For dosage responses, cells were seeded in 96-wells (25.000/ 96-well, in triplicate -where indicated) and subjected to compounds for 48 h. Cell viability was assessed using automated cell counting (high-throughput flow cytometry), Alamar Blue staining (Invitrogen, DAL1100) or CellTiter-Glo Luminescent Assay (Promega, G7570, according to the manufacturer’s protocol) respectively.

[3] = system: neuroblastoma cells (SHSY5Y), Jurkat and HL-60 cells; assay: ROS levels by Dihydroethidium (DHE) staining and flow cytometry in cell lines; assay type: cell-based; conditions: SHSY5Y and Jurkat cells; artemisinin 0.5 µM, 5-ALA 0.25 mM
Experimental: as §1

In the case of NCC(=O)CCC(=O)O [5-ALA, 5-amino-4-oxopentanoic acid], the “ROS levels (DHE staining, FACS)” value [1] is reported as “slightly induced ROS production”, the “GFP+ tumor tissue, immunohistochemistry of sectioned organoids” value [2] is reported as “losss of GFP+ tumor tissue” and the “effect on non-transformed neuronal tissues in the cerebral organoids” value ([2]; Sox2 expressing cells, rosette-like structures) is reported as “no apparent effect on the non-transformed neuronal tissues”. The “growth of GFP-positive tumor organoids” value ([2]; very high concentrations, compound alone) was “notable growth inhibition”, the “susceptibility to artemisinin (cell survival)” value (mouse ESCs) was “increased the sensitivity to the anti-malarial compound” and the “ROS levels (DHE staining, MFI)” value [3] was “triggered ROS”.
